Test results from publication PMC3265452 (PLoS Neglected Tropical Diseases, 2012).
Counter-ions that a name gives are not always drawn. Like-named read-outs stand apart in the source and are kept apart here.

Target: AaDOP2 (Aedes aegypti, UniProt H6D5H2)
Assay: AaDOP2 antagonist screen of the LOPAC1280 library (HEK-CRELuc-Aadop2 cells, luminescence)
Format: cell-based
[1] = 10 µM compound, 300 nM dopamine, 2 hr, hit = compound effect <20

Chain of AaDOP2 (H6D5H2 1-476): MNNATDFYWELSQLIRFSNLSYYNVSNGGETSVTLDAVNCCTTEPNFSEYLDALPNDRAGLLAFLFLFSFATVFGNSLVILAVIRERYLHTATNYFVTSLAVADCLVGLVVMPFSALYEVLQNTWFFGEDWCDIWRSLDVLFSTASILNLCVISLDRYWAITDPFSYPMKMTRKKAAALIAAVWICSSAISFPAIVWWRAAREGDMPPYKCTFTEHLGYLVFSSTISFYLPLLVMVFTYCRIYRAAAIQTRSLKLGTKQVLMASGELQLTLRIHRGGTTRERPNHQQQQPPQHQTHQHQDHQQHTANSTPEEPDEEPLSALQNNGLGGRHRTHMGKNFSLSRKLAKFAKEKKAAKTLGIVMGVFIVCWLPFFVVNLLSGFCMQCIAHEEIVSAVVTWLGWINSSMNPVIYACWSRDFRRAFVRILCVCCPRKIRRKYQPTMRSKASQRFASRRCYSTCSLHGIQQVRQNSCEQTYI

Row | SMILES | Compound effect (percent receptor signaling in presence of test compound, relative lux units relative to the SCH23390 control) | Compound effect (percent receptor signaling in presence of test compound, relative lux units relative to the SCH23390 control) [1] [%]
1 | NC(=NCc1ccccc1)NC(=O)c1nc(Cl)c(N)nc1N [Compound 166, Benzamil hydrochloride] | 60 | 
2 | CCCCS(=N)(=O)CC[C@H](N)C(=O)O (stereo partly drawn) [Compound 167, L-Buthionine-sulfoximine] | 81 | 
3 | C[N+](C)(C)CC(=O)O [Compound 170, Betaine hydrochloride] | 86 | 
4 | C[N+](C)(C)CC=O [Compound 171, Betaine aldehyde chloride] | 99 | 
5 | CC(/C=C/c1cccc(Oc2ccc(F)cc2)c1)N(O)C(N)=O (stereo not drawn) [Compound 173, BWB70C] | 118 | 
6 | O=c1[nH]c(=O)n([C@H]2C[C@H](O)[C@@H](CO)O2)cc1Br [Compound 174, 5-Bromo-2'-deoxyuridine] | 84 | 
7 | CC(C)COCC(CN(Cc1ccccc1)c1ccccc1)N1CCCC1 (stereo not drawn) [Compound 175, Bepridil hydrochloride] | 78 | 
8 | CN(C)CC[C@@H](c1ccc(Br)cc1)c1ccccn1 [Compound 176, (+)-Brompheniramine maleate] | 97 | 
9 | Oc1ccc(-c2nc(-c3ccncc3)c(-c3ccc(F)cc3)[nH]2)cc1 [Compound 178, SB 202190] | 65 | 
10 | CC(C)(C)c1ccc(S(=O)(=O)/C=C/C#N)cc1 [Compound 179, Bay 11-7085] | 76 | 
11 | CC(C)NCC(O)COc1ccc(CCOCC2CC2)cc1 (stereo not drawn) [Compound 180, Betaxolol hydrochloride] | 95 | 
12 | N=C(N)c1ccccc1 [Compound 181, Benzamidine hydrochloride] | 87 | 
13 | C[C@H]1C[C@H]2[C@@H]3CCC4=CC(=O)C=C[C@]4(C)[C@@]3(F)[C@@H](O)C[C@]2(C)[C@@]1(O)C(=O)CO [Compound 182, Betamethasone] | 89 | 
14 | O=C1CC2(CCCC2)CC(=O)N1CCCCN1CCN(c2ncccn2)CC1 [Compound 183, Buspirone hydrochloride] | 83 | 
15 | NC(CO)C(=O)NNCc1ccc(O)c(O)c1O (stereo not drawn) [Compound 184, Benserazide hydrochloride] | 94 | 
16 | C[C@H]1CCC/C=C/[C@@H]2C[C@H](O)C[C@H]2[C@H](O)/C=C/C(=O)O1 [Compound 185, Brefeldin A from Penicillium brefeldianum] | 124 | 
17 | CCCC1O[C@@H]2C[C@H]3[C@@H]4CCC5=CC(=O)C=C[C@]5(C)[C@H]4[C@@H](O)C[C@]3(C)[C@]2(C(=O)CO)O1 (stereo partly drawn) [Compound 186, Budesonide] | 128 | 
18 | CCCCOc1cc(CC2CNC(=O)N2)ccc1OC (stereo not drawn) [Compound 189, Ro 20-1724] | 122 | 
19 | CC(C)C[C@H](NC(=O)[C@@H](O)[C@H](N)Cc1ccccc1)C(=O)O [Compound 190, Bestatin hydrochloride] | 145 | 
20 | CC[N+](C)(C)Cc1ccccc1Br [Compound 191, Bretylium tosylate] | 97 | 
21 | CN1CCc2cc3c(cc2[C@H]1[C@@H]1OC(=O)c2c1ccc1c2OCO1)OCO3 [Compound 192, (+)-Bicuculline] | 94 | 
22 | COc1ccccc1N1CCN(CCCCNC(=O)c2ccc3ccccc3c2)CC1 [Compound 193, BP 897] | 54 | 
23 | O=c1[nH]c(=O)n([C@H]2C[C@H](O)[C@@H](CO)O2)cc1/C=C/Br [Compound 194, (E)-5-(2-Bromovinyl)-2'-deoxyuridine] | 121 | 
24 | OC(CN1CCN(c2cccc(Cl)c2)CC1)C(c1ccccc1)c1ccccc1 (stereo not drawn) [Compound 195, BRL 15572] | 84 | 
25 | Cl.NCC(O)c1cc(O)c(O)cc1F (stereo not drawn) [Compound 197, 6-Fluoronorepinephrine hydrochloride] |  | 90
26 | C=CCc1ccccc1OCC(O)CNC1(C)CCC(C(C)(C)NC(=O)CBr)CC1 (stereo not drawn) [Compound 198, Bromoacetyl alprenolol menthane] | 87 | 
27 | COc1cccc(OC)c1OCCNCC1CSc2ccccc2O1 (stereo not drawn) [Compound 199, Benoxathian hydrochloride] | 68 | 

Row | SMILES | Compound effect (percent receptor signaling in presence of test compound, relative lux units relative to the SCH23390 control) | Compound effect (percent receptor signaling in presence of test compound, relative lux units relative to the SCH23390 control) [1] [%]
28 | CC(COc1ccccc1)N(CCCl)Cc1ccccc1 (stereo not drawn) [Compound 200, Phenoxybenzamine hydrochloride] | 86 | 
29 | CC(NC(C)(C)C)C(=O)c1cccc(Cl)c1 (stereo not drawn) [Compound 201, Bupropion hydrochloride] | 77 | 
30 | C[N+](C)(C)CCOC(=O)CBr.[Br-] [Compound 204, Bromoacetylcholine bromide] | 91 | 
31 | COc1ccccc1N1CCN(CCN2C(=O)CC3(CCCC3)CC2=O)CC1.Cl.Cl [Compound 205, BMY 7378 dihydrochloride] |  | 102
32 | Br.C=CCN1CCc2c(cc(O)c(O)c2Br)[C@@H](c2ccccc2)C1 [Compound 206, R(+)-6-Bromo-APB hydrobromide] |  | 182
33 | Cl.c1ccc2sc(C3(N4CCCCC4)CCCCC3)cc2c1 [Compound 207, BTCP hydrochloride] | 100 | 
34 | CCNC(=O)[C@H]1O[C@@H](n2cnc3c(NCc4ccccc4)ncnc32)[C@H](O)[C@@H]1O [Compound 208, N6-Benzyl-5'-N-ethylcarboxamidoadenosine] |  | 108
35 | Cl.c1ccc2nc(C3=NCCN3)ccc2c1 [Compound 209, BU224 hydrochloride] |  | 92
36 | CCN1CCc2nc(N)oc2CC1.Cl.Cl [Compound 210, B-HT 933 dihydrochloride] |  | 79
37 | C[C@H](Cc1ccc(OCC(=O)[O-])cc1)NC[C@H](O)c1cccc(Cl)c1.[Na+] [Compound 212, BRL 37344 sodium] |  | 87
38 | CN1CCC(c2c[nH]c3ccc(O)cc23)CC1.O=C(O)/C=C\C(=O)O [Compound 213, BRL 54443 maleate] | 80 | 
39 | CC(N)Cc1c[nH]c2ccc(OCc3cccs3)cc12 (stereo not drawn) [Compound 214, BW 723C86] | 92 | 
40 | O=C(O)CCCc1ccc(N(CCCl)CCCl)cc1 [Compound 215, Chlorambucil] | 106 | 
41 | C[N+](C)(C)CCOP(=O)([O-])OP(=O)([O-])OC[C@H]1O[C@@H](n2ccc(N)nc2=O)[C@H](O)[C@@H]1O.[Na+] [Compound 216, Citicoline sodium] | 91 | 
42 | CC(C)(Oc1ccc(C2CC2(Cl)Cl)cc1)C(=O)O (stereo not drawn) [Compound 217, Ciprofibrate] | 97 | 
43 | COc1cc2c(CCNC(C)=O)c[nH]c2cc1Cl [Compound 218, 6-Chloromelatonin] |  | 90
44 | O=NN(CCCl)C(=O)NCCCl [Compound 219, Carmustine] | 82 | 
45 | CCC(C)N(C)C(=O)c1cc2ccccc2c(-c2ccccc2Cl)n1 (stereo not drawn) [Compound 220, PK 11195] | 84 | 
46 | O=C(O)/C=C/c1ccc(O)c(O)c1 [Compound 221, Caffeic Acid] | 114 | 
47 | O=C1CCc2cc(OCCCCc3nnnn3C3CCCCC3)ccc2N1 [Compound 222, Cilostazol] | 108 | 
48 | O=P1(N(CCCl)CCCl)NCCCO1 (stereo not drawn) [Compound 224, Cyclophosphamide monohydrate] | 83 | 
49 | CC(C)(CO)Cc1cc(C(C)(C)C)c(O)c(C(C)(C)C)c1 [Compound 225, CGP-7930] | 89 | 
50 | CC(C)(C=O)Cc1cc(C(C)(C)C)c(O)c(C(C)(C)C)c1 [Compound 226, CGP-13501] | 98 | 
51 | CCCCCCC(C)(C)c1ccc([C@@H]2C[C@H](O)CC[C@H]2CCCO)c(O)c1 [Compound 227, CP55940] | 85 | 
52 | N[C@H]1CON=C1O [Compound 228, L-Cycloserine] | 88 | 
53 | O=S(=O)(c1cccc2c(Cl)cccc12)N1CCCNCC1 [Compound 229, ML-9] | 102 | 
54 | CCCNC(=O)NS(=O)(=O)c1ccc(Cl)cc1 [Compound 231, Chlorpropamide] | 98 | 
